Read-outs that look alike come from different tables or passages of the source.

The test system of test [1] is MET amplified SNU5 gastric cancer tumor xenograft. The experiment in a line: SNU5 gastric cancer tumor xenograft model. Format: in vivo, athymic nude mice. Particulars: 0.3, 1, 3 and 10 mg/kg oral gavage once daily. On the procedure: Animals. Female athymic nude mice 6 weeks of age were obtained from Harlan Laboratories (Indianapolis, Ind.). Animals were housed in sterilized caging and received Harlan Teklad autoclavable or irradiated rodent diet and water ad libitum. All of the procedures were conducted as described in an animal care and use protocol approved by Amgen's Institutional Animal Care and Use Committee. The program of animal care is fully accredited by the Association for Assessment and Accreditation of Laboratory Animal Care International.
Xenograft Studies. MKN45 (3×106 with Matrigel at a ratio of 2:1), SNU-5 (5×106 with Matrigel at a ratio of 2:1) cells were injected subcutaneously in the right flank of female athymic nude mice (n=10 per group). […] All mice were dosed by oral gavage once daily. Tumor volume was measured twice weekly with a Pro-Max Fowler Digital Ultra Caliper (Fred Fowler Co., Inc.) as length (mm)×width (mm)×height (mm) and expressed as cubic millimeters. Data are expressed as mean±standard error for each group and plotted as a function of time. The statistical significance of observed differences between growth curves was evaluated by repeated measures ANOVA followed by Dunnett's post hoc test.
Tumor volumes were measured twice weekly until the conclusion of the study.

The subject of another test is C32. The experiment in a line: 72 hour cancer cell line viability assay (CellTiter-Glo). To be noted: Homo sapiens; C32, Melanoma; MET copy number Low, focal No; 72 hour viability. The format is cell-based. How it is done:
(§1) Human cancer cell lines were purchased from ATCC, JCRB, Sigma Aldrich or DSMZ. All cell lines were propagated in growth media per the suppliers' recommendation and maintained in 5% CO2 and 37° C.
(§2) Cancer cell line viability assays were carried out using the CellTiter-Glo Luminescent Cell Viability Assay from Promega (Madison, Wis.). Optimal cell seeding densities were determined using time lapse imaging to maximize signal window and ensure cells were not contact growth inhibited at the 72 hour time point. Cells were seeded in 96 well plates in complete growth media and allowed to adhere to the bottom of the plate by incubation at 37° C. and 5% CO2 overnight. […] Plates were incubated at 37° C. and 5% CO2 for 72 hours. Treated plates were then allowed to equilibrate to room temperature along with, CellTiter-Glo substrate and buffer solution prior to use in the viability assay. CellTiter-Glo substrate vials were reconstituted in 10 mL of buffer solution and added to assay plates in 100 μL/well volumes. Plates were shaken for 2 minutes at 700 rotations per minute with an orbit diameter of 3 mm followed by room temperature incubation for 10 minutes. Plates were then read using an Envision plate reader on luminescent setting.
(§3) Threshold for high vs low MET copy number was set at aCGH log 2 ratio of 2.5. Focal nature of MET copy number increase was defined qualitatively using tiled aCGH results for chromosome 7.

The subject of a further test is HOP-92. The test is described as above. The format is cell-based. Particulars: Homo sapiens; HOP-92, NSCLC; MET copy number Low, focal No; 72 hour viability. How it is done: as §1, §2, §3
In the next test the test system is OE33. The description is as above. To be noted: Homo sapiens; OE33, Esophagus; MET copy number High, focal Yes; 72 hour viability. The format is cell-based. How it is done: as §1, §2, §3
The subject of another test is NCI-H820. The description is as above. Format: cell-based. To be noted: Homo sapiens; NCI-H820, NSCLC; MET copy number Low, focal No; 72 hour viability. How it is done:
as §1, §2, §3

In a further test the test system is G-361. The description is as above. Format: cell-based. Particulars: Homo sapiens; G-361, Melanoma; MET copy number Low, focal No; 72 hour viability. On the procedure: as §1, §2, §3
The next test concerns NCI-H1573. The description is as above. Format: cell-based. To be noted: Homo sapiens. On the procedure:
as §1, §2, §3

Another test has as its system NUGC-4. The test is described as above. The format is cell-based. Particulars: Homo sapiens; NUGC-4, Gastric; MET copy number Low, focal Yes; 72 hour viability. How it is done: as §1, §2, §3
The subject of a further test is NCI-H2342. The test is described as above. Format: cell-based. Particulars: Homo sapiens; NCI-H2342, NSCLC; MET copy number Low, focal No; 72 hour viability. On the procedure: as §1, §2, §3
The subject of a further test is CAL-54. The description is as above. Format: cell-based. Particulars: Homo sapiens; CAL-54, Kidney; MET copy number Low, focal No; 72 hour viability. On the procedure:
as §1, §2, §3

Another test concerns HCC1395. Described as above. Format: cell-based. To be noted: Homo sapiens; HCC1395, breast; MET copy number Low, focal No; 72 hour viability. How it is done: as §1, §2, §3
The next test concerns Malme-3M. Described as above. The format is cell-based. Particulars: Homo sapiens, Melanoma, MET copy number Low, focal No, 72 hour viability. How it is done:
as §1, §2, §3

For another test, the system named is Hs 746T. The description is as above. Format: cell-based. To be noted: Homo sapiens, Hs746T, Gastric, MET copy number High, focal Yes, 72 hour viability. On the procedure: as §1, §2, §3
A further test has as its system AU-565. The description is as above. Format: cell-based. To be noted: Homo sapiens, AU565; AU-565, Breast; MET copy number Low, focal No; 72 hour viability. On the procedure: as §1, §2, §3
Another test relates to NCI-H1648. Described as above. To be noted: Homo sapiens; NCI-H1648, NSCLC; MET copy number Low, focal Yes; 72 hour viability. The format is cell-based. How it is done: as §1, §2, §3
The subject of the next test is Alexander. The test is described as above. The format is cell-based. To be noted: Homo sapiens, Liver, MET copy number Low, focal No, 72 hour viability. On the procedure: as §1, §2, §3
The test system of another test is EBC-1. The description is as above. Format: cell-based. Particulars: Homo sapiens; EBC-1, NSCLC; MET copy number High, focal Yes; 72 hour viability. How it is done:
as §1, §2, §3

On to `COCCOc1cnc2ccn([C@H](C)c3nnc4c(F)cc(-c5cnn(C)c5)cn34)c(=O)c2c1` [Compound M, 6-{(1R)-1-[8-fluoro-6-(1-methyl-1H-pyrazol-4-yl)[1,2,4]triazolo[4,3-a]pyridin-3-yl]ethyl}-3-(2-methoxyethoxy)-1,6-naphthyridin-5(6H)-one], for which the “anti-tumor efficacy” value in [1] is reported as “robust dose dependent anti-tumor efficacy”. In addition, the IC50 is above 3000 nM in the test on C32; above 3000 nM in the test on HOP-92; 3 nM in the test with OE33; above 3000 nM in the test on NCI-H820; above 3000 nM in the test with G-361; above 3000 nM in the test with NCI-H1573 (NCI-H1573, NSCLC, MET copy number High, focal Yes, 72 hour viability, read-out: IC50). Moreover, the IC50 in the test with NCI-H1573 (NCI-H1573, high level focal MET amplification (log 2 ratio=2.9), KRAS G12A, read-out: viability assay IC50) is above 3000 nM; in the test on NUGC-4 it was above 3000 nM; with NCI-H2342, above 3000 nM; with CAL-54, above 3000 nM; in the test with HCC1395, above 3000 nM; in the test on Malme-3M, above 3000 nM. Besides, the IC50 is 3 nM with Hs 746T; above 3000 nM in the test on AU-565; above 3000 nM in the test on NCI-H1648; above 3000 nM with Alexander; 8 nM in the test on EBC-1.

In general, IC50 refers to the concentration needed to halve the response being measured.
